Source: BindingDB's records for doi:10.7270/Q2H70D5W (University of Pittsburgh, 2007)

Biological target: Gag-Pol polyprotein (Human immunodeficiency virus type 1 group M subtype B (isolate HXB2), UniProt P04585)
Assay: concentration-response of HIV-1 RNase H blockers – biochemical, probe assessment, dose response (AID 652)
Conditions: pH 8; 23 °C

| Structure (SMILES) | IC50 [µM] |
| --- | --- |
| c1ccc(Cc2nn3c(Cn4nnc5ccccc54)nnc3s2)cc1 [3-(1-benzotriazolylmethyl)-6-(phenylmethyl)-[1,2,4]triazolo[3,4-b][1,3,4]thiadiazole] | 1.84 |
| c1ccc2c(c1)nnn2Cc1nnc2sc(-c3ccncc3)nn12 [3-(1-benzotriazolylmethyl)-6-pyridin-4-yl-[1,2,4]triazolo[3,4-b][1,3,4]thiadiazole] | 2.1 |
| c1csc(-c2nn3c(C4COc5ccccc5O4)nnc3s2)c1 (centres undefined) [3-(2,3-dihydro-1,4-benzodioxin-2-yl)-6-(2-thienyl)[1,2,4]triazolo[3,4-b][1,3,4]thiadiazole] | 1.21 |
| COc1ccc(N2CSC3=C(C#N)C(c4cc(OC)ccc4OC)CC(=O)N3C2)c(OC)c1 (centres undefined) [3-(2,4-dimethoxyphenyl)-8-(2,5-dimethoxyphenyl)-6-keto-2,4,7,8-tetrahydropyrido[2,1-b][1,3,5]thiadiazine-9-carbonitrile] | 2.9 |
| COc1ccc(N2CSC3=C(C#N)C(c4ccc(OC)c(OC)c4)CC(=O)N3C2)c(OC)c1 (centres undefined) [3-(2,4-dimethoxyphenyl)-8-(3,4-dimethoxyphenyl)-6-oxidanylidene-2,4,7,8-tetrahydropyrido[2,1-b][1,3,5]thiadiazine-9-carbonitrile] | 17.8 |
| CCOc1ccccc1N1CSC2=C(C#N)C(c3c(OC)ccc4ccccc34)CC(=O)N2C1 (centres undefined) [3-(2-ethoxyphenyl)-8-(2-methoxy-1-naphthalenyl)-6-oxo-2,4,7,8-tetrahydropyrido[2,1-b][1,3,5]thiadiazine-9-carbonitrile] | 2.18 |
| CCc1ccccc1N1CSC2=C(C#N)C(c3cc(OC)c(OC)cc3OC)CC(=O)N2C1 (centres undefined) [3-(2-ethylphenyl)-6-oxidanylidene-8-(2,4,5-trimethoxyphenyl)-2,4,7,8-tetrahydropyrido[2,1-b][1,3,5]thiadiazine-9-carbonitrile] | 2.91 |
| CCc1ccccc1N1CSC2=C(C#N)C(c3ccccc3F)CC(=O)N2C1 (centres undefined) [3-(2-ethylphenyl)-8-(2-fluorophenyl)-6-keto-2,4,7,8-tetrahydropyrido[2,1-b][1,3,5]thiadiazine-9-carbonitrile] | 1.22 |
| CN(C)c1ccc2c(c1)N=C(c1ccco1)OP2(=S)N1CCOCC1 (centres undefined) [3-(2-furanyl)-N,N-dimethyl-1-(4-morpholinyl)-1-sulfanylidene-2,4,1-benzoxazaphosphorin-6-amine] | 1.66 |
| COc1ccccc1N1CSC2=C(C#N)C(c3ccc(SC)cc3)CC(=O)N2C1 (centres undefined) [3-(2-methoxyphenyl)-8-(4-methylsulfanylphenyl)-6-oxidanylidene-2,4,7,8-tetrahydropyrido[2,1-b][1,3,5]thiadiazine-9-carbonitrile] | 2.59 |
| COc1cc(C2CC(=O)N3CN(c4ccccc4C)CSC3=C2C#N)cc(OC)c1OC (centres undefined) [3-(2-methylphenyl)-6-oxidanylidene-8-(3,4,5-trimethoxyphenyl)-2,4,7,8-tetrahydropyrido[2,1-b][1,3,5]thiadiazine-9-carbonitrile] | 4.1 |
| CC(=O)C(C(C)=O)c1c(Cl)c(O)c(O)c2c(C(=O)c3ccccc3)coc12 [3-(3-benzoyl-6-chloro-4,5-dihydroxy-1-benzofuran-7-yl)pentane-2,4-dione] | 0.384 |
| CC(C)(C)c1ccc(-c2nnc3sc(-c4ccncc4)nn23)cc1 [3-(4-tert-butylphenyl)-6-(4-pyridinyl)[1,2,4]triazolo[3,4-b][1,3,4]thiadiazole] | 6.18 |
| CN(C)c1cccc(C(=O)Nc2cccc(F)c2)c1 [3-(dimethylamino)-N-(3-fluorophenyl)benzamide] | 12.2 |
| c1ccc(Cc2nn3c(COc4ccccc4)nnc3s2)cc1 [3-(phenoxymethyl)-6-(phenylmethyl)-[1,2,4]triazolo[3,4-b][1,3,4]thiadiazole] | 1.36 |
| COc1cc(-c2nn3c(Cc4ccccc4)nnc3s2)cc(OC)c1OC [3-(phenylmethyl)-6-(3,4,5-trimethoxyphenyl)-[1,2,4]triazolo[3,4-b][1,3,4]thiadiazole] | 4.78 |
| c1ccc(Cc2nnc3sc(-c4ccncc4)nn23)cc1 [3-(phenylmethyl)-6-pyridin-4-yl-[1,2,4]triazolo[3,4-b][1,3,4]thiadiazole] | 1.81 |
| Cc1nn(CCC#N)c2c1P(=S)(N1CCCC1)OC(c1ccc(F)cc1)=N2 (centres undefined) [3-[3-(4-fluorophenyl)-7-methyl-1-(1-pyrrolidinyl)-1-sulfanylidene-5-pyrazolo[4,3-c][1,5,2]oxazaphosphorinyl]propanenitrile] | 0.879 |
| COc1ccc2nc(O)c(CN(C3CCCCC3)C(c3nnnn3Cc3ccco3)C(C)C)cc2c1 (centres undefined) [3-[[cyclohexyl-[1-[1-(2-furanylmethyl)-5-tetrazolyl]-2-methylpropyl]amino]methyl]-6-methoxy-1H-quinolin-2-one] | 1.03 |
| C=CCn1c(N)c(C(=O)NCCC2=CCCCC2)sc1=S [3-allyl-4-amino-N-(2-cyclohex-1-en-1-ylethyl)-2-thioxo-2,3-dihydro-1,3-thiazole-5-carboxamide] | 3.82 |
| COC(=O)c1oc2ccc(Br)cc2c1NC(=O)c1ccccc1 [3-benzamido-5-bromo-2-benzofurancarboxylic acid methyl ester] | 0.989 |
| COc1ccc2ccccc2c1C1CC(=O)N2CN(C3CCCCC3)CSC2=C1C#N (centres undefined) [3-cyclohexyl-8-(2-methoxynaphthalen-1-yl)-6-oxo-2,4,7,8-tetrahydropyrido[2,1-b][1,3,5]thiadiazine-9-carbonitrile] | 3.62 |

| Structure (SMILES) | IC50 [µM] |
| --- | --- |
| CCOc1cc(C2CC(=O)N3CN(C4CCCCC4)CSC3=C2C#N)ccc1O (centres undefined) [3-cyclohexyl-8-(3-ethoxy-4-hydroxy-phenyl)-6-keto-2,4,7,8-tetrahydropyrido[2,1-b][1,3,5]thiadiazine-9-carbonitrile] | 19.5 |
| O=C1CCCC(=O)C1C(C#Cc1ccccc1)C1C(=O)CCCC1=O [3-hydroxy-2-[1-(2-hydroxy-6-keto-cyclohexen-1-yl)-3-phenyl-prop-2-ynyl]cyclohex-2-en-1-one] | 1.08 |
| O=C(O)c1ccc2c(c1)NC(=O)C(N1CCCC1)S2 (centres undefined) [3-keto-2-pyrrolidino-4H-1,4-benzothiazine-6-carboxylic acid] | 3.69 |
| CC(C)CN(C(=O)COC(=O)c1ccc2c(c1)NC(=O)CS2)C1CCS(=O)(=O)C1 (centres undefined) [3-keto-4H-1,4-benzothiazine-6-carboxylic acid [2-[(1,1-diketothiolan-3-yl)-isobutyl-amino]-2-keto-ethyl] ester] | 30.3 |
| COc1cc(OC)c(C2CC(=O)N3CN(C)CSC3=C2C#N)cc1OC (centres undefined) [3-methyl-6-oxidanylidene-8-(2,4,5-trimethoxyphenyl)-2,4,7,8-tetrahydropyrido[2,1-b][1,3,5]thiadiazine-9-carbonitrile] | 14.5 |
| Cc1ccc(Cn2c(SCC(C)C)nc3c2c(=O)[nH]c(=O)n3C)cc1 [3-methyl-7-[(4-methylphenyl)methyl]-8-(2-methylpropylthio)purine-2,6-dione] | 1.71 |
| C=CCSc1nc2c(c(=O)[nH]c(=O)n2C)n1C(C)C [3-methyl-7-propan-2-yl-8-prop-2-enylsulfanylpurine-2,6-dione] | > 50 |
| CC1CC(C)(C)NC(=S)S1 (centres undefined) [4,4,6-trimethyl-1,3-thiazinane-2-thione] | 5.24 |
| CCCc1cc(C(=O)Nc2sc(C)c(C)c2C(=O)OCC)no1 [4,5-dimethyl-2-[(5-propylisoxazole-3-carbonyl)amino]thiophene-3-carboxylic acid ethyl ester] | 2.53 |
| C=CCc1c(C)nc(S)c(C#N)c1C [4,6-dimethyl-5-prop-2-enyl-2-sulfanylidene-1H-pyridine-3-carbonitrile] | 7.25 |
| Cc1ccc(-n2nc(C)c3c2NC(=O)CSC3c2ccc3c(c2)OCO3)cc1 (centres undefined) [4-(1,3-benzodioxol-5-yl)-3-methyl-1-(4-methylphenyl)-2,4-dihydropyrazolo[3,4-e][1,4]thiazepin-7-one] | 5.2 |
| CCOC(=O)c1c(C2COc3ccccc3O2)csc1NC(=O)c1ccco1 (centres undefined) [4-(2,3-dihydro-1,4-benzodioxin-3-yl)-2-(2-furoylamino)thiophene-3-carboxylic acid ethyl ester] | 0.654 |
| COc1ccc(Cn2nnnc2C(c2cccnc2)N2CCN(c3ccc(O)cc3)CC2)cc1 (centres undefined) [4-(4-{[1-(4-Methoxy-benzyl)-1H-tetrazol-5-yl]-pyridin-3-yl-methyl}-piperazin-1-yl)-phenol] | > 50 |
| CCn1c2ccccc2c2nc3cc(S(=O)(=O)N4CCOCC4)ccc3nc21 [4-(6-ethylindolo[2,3-b]quinoxalin-2-yl)sulfonylmorpholine] | 1.02 |
| COc1cccc(-c2nnc(NC(=O)c3ccc(S(=O)(=O)N(CC(C)C)CC(C)C)cc3)o2)c1 [4-(diisobutylsulfamoyl)-N-[5-(3-methoxyphenyl)-1,3,4-oxadiazol-2-yl]benzamide] | 4.77 |
| CCCN(CCC)S(=O)(=O)c1ccc(C(=O)Nc2nnc(-c3cccc(OC)c3)o2)cc1 [4-(dipropylsulfamoyl)-N-[5-(3-methoxyphenyl)-1,3,4-oxadiazol-2-yl]benzamide] | 21.2 |
| COc1ccc(OC)c(Nc2nc(-c3ccc(O)c(O)c3)cs2)c1 [4-[2-(2,5-Dimethoxy-phenylamino)-thiazol-4-yl]-benzene-1,2-diol] | 1.48 |
| O=C(CCCn1c(SCC(=O)c2ccc(O)c(O)c2)nc2ccccc2c1=O)NCC1CCCO1 (centres undefined) [4-[2-[2-(3,4-dihydroxyphenyl)-2-oxoethyl]sulfanyl-4-oxoquinazolin-3-yl]-N-(oxolan-2-ylmethyl)butanamide] | 0.879 |
| Cc1nc(-c2cccc(S(=O)(=O)N3CCOCC3)c2)cs1 [4-[3-(2-methyl-1,3-thiazol-4-yl)phenyl]sulfonylmorpholine] | 5.96 |
| Nc1ccc(-c2nnc(-c3ccc(-c4ccccc4)cc3)o2)cc1 [4-[5-(4-phenylphenyl)-1,3,4-oxadiazol-2-yl]aniline] | 2.71 |
| Nc1c(S(=O)(=O)c2cccc(Cl)c2)c2c(n1N=CC1=CC(=O)C(=O)C=C1)Nc1ccccc1N2 [4-[[2-azanyl-3-(3-chlorophenyl)sulfonyl-4,9-dihydropyrrolo[3,2-b]quinoxalin-1-yl]iminomethyl]cyclohexa-3,5-diene-1,2-dione] | 0.266 |
| COc1ccc(N2CCN(Cc3cc(=O)oc4cc5c(cc34)CCCC5)CC2)cc1 [4-[[4-(4-methoxyphenyl)-1-piperazinyl]methyl]-6,7,8,9-tetrahydrobenzo[g][1]benzopyran-2-one] | 4.35 |
